In data set [1] the test system is Mus musculus. As to the kind of experiment: Anticonvulsant activity in ip dosed AGS-susceptible frings albino CF1 mouse assessed as protection against sound-induced seizures. It counts as functional.
In data set [2] the test system is Mus musculus. The experiment in a line: Anticonvulsant activity in ip dosed albino CF1 mouse assessed as protection against 6 Hz current-induced seizure by measuring time to peak effect. It counts as functional.
Data set [3] relates to Mus musculus. As to the kind of experiment: Anticonvulsant activity in ip dosed albino CF1 mouse assessed as protection against maximal electroshock-induced seizures by measuring time to peak effect. It counts as functional. A general note: The maximal electroshock test induces tonic seizures with an electrical stimulus.
Data set [4] is described as follows: Neurotoxicity in ip dosed albino CF1 mouse assessed as motor impairment by rotorod test. It counts as toxicity, organism-based. The note with it: in vivo. (In general: Falling from the rotarod earlier than controls is read as motor impairment.)
Data set [5] has as its system Mus musculus. The experiment in a line: Anticonvulsant activity in ip dosed albino CF1 mouse assessed as protection against 6 Hz current-induced seizures by psychomotor test. Format: functional.
The subject of data set [6] is Mus musculus. The experiment in a line: Anticonvulsant activity in ip dosed albino CF1 mouse assessed as protection against subcutaneous metrazol-induced seizures. Format: functional.
Data set [7] in a line: Protective index, ratio of TD50 for neurotoxicity in ip dosed albino CF1 mouse to ED50 for anticonvulsant activity in ip dosed 6 Hz current-induced seizure albino CF1 mouse model. The conditions noted are these: in vivo.
Data set [8] deals with Mus musculus. The experiment in a line: Anticonvulsant activity in ip dosed albino CF1 mouse assessed as protection against subcutaneous metrazol-induced seizures by measuring time to peak effect. Format: functional.
The nature of data set [9]: Protective index, ratio of TD50 for neurotoxicity in ip dosed albino CF1 mouse to ED50 for anticonvulsant activity in ip dosed […] metrazol-induced seizure albino CF1 mouse model. It counts as toxicity, organism-based. The note with it: in vivo, read-out: Ratio TD50/ED50.
The nature of data set [10]: Protective index, ratio of TD50 for neurotoxicity in ip dosed albino CF1 mouse to ED50 for protection against sound-induced seizures in ip dosed AGS-susceptible frings albino CF1 mouse. The note with it: CF1 (ED50 arm: AGS-susceptible Frings), in vivo, read-out: Ratio TD50/ED50. It counts as toxicity, organism-based.
In a further data set the test system is Homo sapiens. The experiment in a line: Anticonvulsant activity in patient assessed as improvement in seizure control at 600 mg/day administered up to 1 year. Format: functional.

Structures are written as SMILES.

One may read the ED50 as the dose at which the effect has come halfway, by size or by number of responders. As usually defined, the TD50 is the dose at which the toxic effect under study appears in half of the subjects. As for `CCCC(C(N)=O)C(C)CC` (stereo unspecified), the ED50 in the data set on Mus musculus [1] amounted to 20 mg/kg; in the data set on Mus musculus [5], 27 mg/kg; in the data set with Mus musculus [6] it was 21 mg/kg. The Time with Mus musculus [2], in the data set with Mus musculus [3] and in the data set with Mus musculus [8] was 0.5 h throughout. Also, the TD50 in data set [4] turned out to be 48 mg/kg. Also, the selectivity ratio in data set [7] is 1.8; in data set [9], 2.3; in data set [10], 2.4.
On to `O=C(Cn1ccnc1)c1ccc2ccccc2c1` [NAFIMIDONE], for which the Activity in the data set with Homo sapiens worked out at 33%.
